From patent publication US12358915B2, “METTL3 inhibitory compounds” (STORM THERAPEUTICS LTD., priority 2019, dated 2025)

System: MOLM-13 cells
Assay: MOLM13 CTG - analysis of cell proliferation (Cell Titre Glo)
Type: cell-based
Settings: Homo sapiens, geometric mean, read-out: CTG MOLM13 cells IC50 GEOMEAN

| SMILES | IC50 |
| --- | --- |
| O=C(NCc1cn2cc(CNCC3CCC(F)(F)C3)ccc2n1)c1cc(=O)n2ccccc2n1 (stereo not drawn) [Compound 211, N-{[6-({[(3,3-difluorocyclopentyl)methyl]amino}methyl)imidazo [1,2-a]pyridin-2-yl]methyl}-4-oxo-4H-pyrido[1,2-a]pyrimidine-2-carboxamide] | 11400 nM |
| O=C(NCc1cn2cc(CNCC3CCCCC3)ccc2n1)c1cc(=O)n2ccccc2n1 [Compound 72, N-[(6-{[(cyclohexyl-methyl)amino]methyl}imidazo [1,2-a]pyridin-2-yl)methyl]-4-oxo-4H-pyrido [1,2-a]pyrimidine-2-carboxamide] | 8700 nM |

Target: T1, METTL3/14 (Homo sapiens, UniProt Q86U44)
T1 construct: The enzyme used was full-length his-tagged METTL3; His; made in house
T1 sequence (Q86U44 whole entry): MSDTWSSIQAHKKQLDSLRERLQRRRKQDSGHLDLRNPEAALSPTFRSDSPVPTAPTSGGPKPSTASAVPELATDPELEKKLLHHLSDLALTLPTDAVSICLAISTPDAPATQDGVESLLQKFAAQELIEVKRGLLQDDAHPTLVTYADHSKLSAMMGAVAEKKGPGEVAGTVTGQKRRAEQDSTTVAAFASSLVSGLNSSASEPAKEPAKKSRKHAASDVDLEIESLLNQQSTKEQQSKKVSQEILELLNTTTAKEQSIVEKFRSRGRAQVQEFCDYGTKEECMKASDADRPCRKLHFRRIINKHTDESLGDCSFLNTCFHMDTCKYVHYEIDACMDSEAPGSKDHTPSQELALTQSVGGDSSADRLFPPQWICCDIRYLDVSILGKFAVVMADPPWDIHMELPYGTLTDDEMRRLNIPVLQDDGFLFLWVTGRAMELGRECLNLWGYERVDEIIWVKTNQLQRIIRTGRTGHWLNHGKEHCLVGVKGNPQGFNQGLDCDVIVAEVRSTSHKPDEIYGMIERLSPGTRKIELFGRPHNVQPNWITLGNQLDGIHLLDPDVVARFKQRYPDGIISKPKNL
T1 sequence (Q9HCE5 whole entry partner): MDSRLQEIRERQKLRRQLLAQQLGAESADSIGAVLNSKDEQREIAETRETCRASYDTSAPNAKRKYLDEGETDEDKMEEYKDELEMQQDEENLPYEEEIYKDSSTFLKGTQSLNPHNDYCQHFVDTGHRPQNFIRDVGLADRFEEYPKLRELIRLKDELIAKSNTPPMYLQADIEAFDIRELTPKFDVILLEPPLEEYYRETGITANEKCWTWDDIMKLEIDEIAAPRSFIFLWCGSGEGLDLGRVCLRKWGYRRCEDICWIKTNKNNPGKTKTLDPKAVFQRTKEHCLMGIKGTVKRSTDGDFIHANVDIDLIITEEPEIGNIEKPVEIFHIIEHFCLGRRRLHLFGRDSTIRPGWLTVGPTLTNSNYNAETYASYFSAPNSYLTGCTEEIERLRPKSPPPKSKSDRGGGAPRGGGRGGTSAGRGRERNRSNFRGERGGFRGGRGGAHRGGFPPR
Assay: METTL3/14 methyltransferase assay (METTL3_14 RFMS, RapidFire mass spectrometry);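 also: recombinant His-tagged METTL3 with FLAG-tagged METTL14 from baculovirus, SAH product quantified by mass spectrometry against isotope-labelled internal standards, 60 min at room temperature, scaled between no-RNA and DMSO-only wells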
Type: biochemical
Settings: 5 nM METTL3/14, 0.2 μM RNA substrate, 0.5 μM SAM; lower limit of the assay IC50=5 nM; Compounds 1-62; read-out: METTL3_14 RFMS IC50

| SMILES | IC50 |
| --- | --- |
| O=C(NCc1cn2cc(CNCCO)ccc2n1)c1cc(=O)n2ccccc2n1 [Compound 52, N-[(6-{[(2-hydroxyethyl)amino]methyl}imidazo[1,2-a]pyridin-2-yl)methyl]-4-oxo-4H-pyrido[1,2-a]pyrimidine-2-carboxamide] | 267 nM |
| COc1ccn2cc(CNC(=O)c3cccc4[nH]ncc34)nc2c1 [Compound 7, N-({7-methoxyimidazo[1,2-a]pyridin-2-yl}methyl)-1H-indazole-4-carboxamide] | 2670 nM |
| O=C(NCc1cn2cc(CN3CCNCC3)ccc2n1)c1cccc2[nH]ncc12 [Compound 38, N-({6-[(piperazin-1-yl)methyl]imidazo[1,2-a]pyridin-2-yl}methyl)-1H-indazole-4-carboxamide] | 5440 nM |
| O=Cc1ccc2nc(CNC(=O)c3cc(=O)n4ccccc4n3)cn2c1 [Example 49, N-[(6-formylimidazo[1,2-a]pyridin-2-yl)methyl]-4-oxo-pyrido[1,2-a]pyrimidine-2-carboxamide] | 1040 nM |
| COc1cccc(-c2ccc3nc(CNC(=O)c4cccc5[nH]ncc45)cn3c2)c1 [Compound 34, N-{[6-(3-methoxyphenyl)imidazo[1,2-a]pyridin-2-yl]methyl}-1H-indazole-4-carboxamide] | 5350 nM |
| Cc1ccc2nc(C(CO)NC(=O)c3cccc4[nH]ncc34)cn2c1 (stereo not drawn) [Compound 30, N-(2-hydroxy-1-{6-methylimidazo[1,2-a]pyridin-2-yl}ethyl)-1H-indazole-4-carboxamide] | 8520 nM |
| O=C(NCc1cn2cc(Nc3cccnc3)ccc2n1)c1cccc2[nH]ncc12 [Compound 37, N-({6-[(pyridin-3-yl)amino]imidazo[1,2-a]pyridin-2-yl}methyl)-1H-indazole-4-carboxamide] | 4740 nM |
| Cc1ccc2nc(CNC(=O)c3cc(=O)n4cc(Cl)ccc4n3)cn2c1 [Compound 21, 7-chloro-N-({6-methylimidazo[1,2-a]pyridin-2-yl}methyl)-4-oxo-4H-pyrido[1,2-a]pyrimidine-2-carboxamide] | 3060 nM |

Same assay, conditions: 5 nM METTL3/14, 0.2 μM RNA substrate, 0.5 μM SAM; lower limit of the assay IC50=5 nM; Compounds 63-265; read-out: METTL3_14 RFMS IC50

| SMILES | IC50 |
| --- | --- |
| O=C(NCc1cn2cc(CNCC3CCC(F)(F)C3)ccc2n1)c1cc(=O)n2ccccc2n1 (stereo not drawn) [Compound 211, N-{[6-({[(3,3-difluorocyclopentyl)methyl]amino}methyl)imidazo [1,2-a]pyridin-2-yl]methyl}-4-oxo-4H-pyrido[1,2-a]pyrimidine-2-carboxamide] | 19.3 nM |
| O=C(NCc1cn2cc([C@H]3COC[C@@H](C4CCCCC4)N3)ccc2n1)c1cc(=O)c2ccccc2o1 [Example 264, N-({6-[(3S,5R)-5-cyclohexylmorpholin-3-yl]imidazo[1,2-a]pyridin-2-yl}methyl)-4-oxo-4H-chromene-2-carboxamide] | 195 nM |
| CC1CCN(Cc2ccc3nc(CNC(=O)c4cc(=O)n5ccccc5n4)cn3c2)CC1 [Compound 137, N-({6-[(4-methylpiperidin-1-yl)methyl]imidazo[1,2-a]pyridin-2-yl}methyl)-4-oxo-4H-pyrido[1,2-a] pyrimidine-2-carboxamide] | 17.8 nM |
| O=C(NCc1cn2cc(CNC(CO)C3CCCCC3)ccc2n1)c1cc(=O)n2ccccc2n1 (stereo not drawn) [Compound 168, N-[(6-{[(1-cyclohexyl-2-hydroxyethyl)amino]methyl}imidazo[1,2-a]pyridin-2-yl)methyl]-4-oxo-4H-pyrido[1,2-a]pyrimidine-2-carboxamide] | 114 nM |
| O=C(NCc1cn2cc(CNC3CC(F)(F)C3)ccc2n1)c1cc(=O)n2ccccc2n1 [Compound 110, N-[(6-{[(3,3-difluorocyclobutyl)amino]methyl}imidazo[1,2-a]pyridin-2-yl)methyl]-4-oxo-4H-pyrido[1,2-a] pyrimidine-2-carboxamide] | 102 nM |
| CC(C)(C)[C@H]1COC[C@@H](c2ccc3nc(CNC(=O)c4cc(=O)n5ccccc5n4)cn3c2)N1 [Example 228, N-({6-[(3R,5S)-5-tert-butylmorpholin-3-yl]imidazo[1,2-a]pyridin-2-yl}methyl)-4-oxo-4H-pyrido[1,2-a]pyrimidine-2-carboxamide] | 239 nM |
| O=C(NCc1cn2cc(CNC[C@@H]3CCCO3)ccc2n1)c1cc(=O)n2ccccc2n1 [Compound 117, 4-oxo-N-({6-[({[(2S)-oxolan-2-yl]methyl}amino)methyl]imidazo[1,2-a]pyridin-2-yl}methyl)-4H-pyrido[1,2-a] pyrimidine-2-carboxamide] | 83.7 nM |
| CC1CN(Cc2ccc3nc(CNC(=O)c4cc(=O)n5ccccc5n4)cn3c2)CC(C)O1 (stereo not drawn) [Compound 199, N-({6-[(2,6-dimethylmorpholin-4-yl)methyl]imidazo[1,2-a]pyridin-2-yl}methyl)-4-oxo-4H-pyrido[1,2-a]pyrimidine-2-carboxamide] | 1860 nM |
| OCc1ccc2nc(Cn3cc(-c4cncc5[nH]ncc45)nn3)cn2c1 [Example 257, {2-[(4-{1H-pyrazolo[3,4-c]pyridin-4-yl}-1H-1,2,3-triazol-1-yl)methyl]imidazo[1,2-a]pyridin-6-yl}methanol] | 4440 nM |
| Cc1ccc2nc(CNC(=O)c3cc(=O)n4c(n3)CCCC4)cn2c1 [Compound 64, N-({6-methylimidazo [1,2-a]pyridin-2-yl}methyl)-4-oxo-4H,6H,7H,8H, 9H-pyrido[1,2-a]pyrimidine-2-carboxamide] | 7330 nM |
| O=C(NCc1cn2cc(CN3CCC(c4ccccc4)C3)ccc2n1)c1cc(=O)n2ccccc2n1 (stereo not drawn) [Compound 97, 4-oxo-N-({6-[(3-phenylpyrrolidin-1-yl)methyl]imidazo [1,2-a]pyridin-2-yl}methyl)-4H-pyrido[1,2-a] pyrimidine-2-carboxamide] | 1020 nM |
| O=C(NCc1cn2cc(CNC3(C4CC4)CC3)ccc2n1)c1cc(=O)n2ccccc2n1 [Compound 197, N-({6-[({[1,1′-bi(cyclopropane)]-1-yl}amino)methyl]imidazo [1,2-a]pyridin-2-yl}methyl)-4-oxo-4H-pyrido [1,2-a]pyrimidine-2-carboxamide] | 84.8 nM |
| O=C(NCc1cn2cc(CNCC3CC3(F)F)ccc2n1)c1cc(=O)n2ccccc2n1 (stereo not drawn) [Compound 157, N-{[6-({[(2,2-difluoro-cyclopropyl)methyl]amino}methyl)imidazo [1,2-a]pyridin-2-yl]methyl}-4-oxo-4H-pyrido [1,2-a]pyrimidine-2-carboxamide] | 42.9 nM |
| CC1(NCc2ccc3nc(CNC(=O)c4cc(=O)n5ccccc5n4)cn3c2)CCCCC1 [Compound 146, N-[(6-{[(1-methylcyclohexyl)amino]methyl}imidazo[1,2-a]pyridin-2-yl)methyl]-4-oxo-4H-pyrido[1,2-a]pyrimidine-2-carboxamide] | 25.1 nM |
| O=C(NCc1cn2cc(CNCC3CCCO3)ccc2n1)c1cc(=O)n2ccccc2n1 (stereo not drawn) [Compound 95, 4-oxo-N-{[6-({[(oxolan-2-yl)methyl]amino}methyl)imidazo [1,2-a]pyridin-2-yl]methyl}-4H-pyrido[1,2-a]pyrimidine-2-carboxamide] | 74.4 nM |
| O=C(NCc1cn2cc(CNCc3ccc(Cl)cc3)ccc2n1)c1cc(=O)c2ccccc2o1 [Compound 220, N-{[6-({[(4-chlorophenyl)methyl]amino}methyl)imidazo[1,2-a]pyridin-2-yl]methyl}-4-oxo-4H-chromene-2-carboxamide] | 168 nM |
| O=C(NCc1cn2cc(CNCC3CCC(F)(F)CC3)ccc2n1)c1cc(=O)n2ccccc2n1 [Compound 101, N-{[6-({[(4,4-difluorocyclohexyl)methyl]amino}methyl)imidazo [1,2-a]pyridin-2-yl]methyl}-4-oxo-4H-pyrido [1,2-a]pyrimidine-2-carboxamide] | 18.1 nM |
| O=C(NCc1cn2cc(CNCc3ccccc3)ccc2n1)c1cc(=O)c2ccccc2o1 [Compound 221, N-({6-[(benzylamino)methyl]imidazo[1,2-a]pyridin-2-yl}methyl)-4-oxo-4H-chromene-2-carboxamide] | 46.7 nM |

Same assay, conditions: 5 nM METTL3/14, 0.2 μM RNA substrate, 0.5 μM SAM; lower limit of the assay IC50=5 nM; Compounds 266-351; read-out: METTL3_14 RFMS IC50

| SMILES | IC50 |
| --- | --- |
| Cc1ccc2nc(Cn3cc(-c4cccc5[nH]nc(N)c45)nn3)cn2c1 [Example 272, 4-[1-[(6-methylimidazo[1,2-a]pyridin-2-yl)methyl]triazol-4-yl]-1H-indazol-3-amine] | 9020 nM |
| NC1(CNCc2ccc3nc(Cn4cc(-c5ccc(F)c6[nH]ncc56)nn4)cn3c2)CCCC1 [Example 309, 1-[[[2-[[4-(7-fluoro-1H-indazol-4-yl)triazol-1-yl]methyl]imidazo[1,2-a]pyridin-6-yl]methylamino]methyl]cyclopentanamine] | 120 nM |
| CCC(O)CNCc1ccc2nc(CNC(=O)c3cc(=O)n4ccccc4n3)cn2c1 (stereo not drawn) [Compound 289, N-[[6-[(2-hydroxputylamino)methyl]imidazo[1,2-a]pyridin-2-yl]methyl]-4-oxo-pyrido[1,2-a]pyrimidine-2-carboxamide] | 103 nM |

Same assay, conditions: primary enzyme screen, inhibition of RNA methyltransferase activity; lower limit of the assay is IC50=5 nM; read-out: IC50

| SMILES | IC50 |
| --- | --- |
| O=C(NCc1cn2cc(CNCc3ccccc3)ccc2n1)c1cc(=O)n2ccccc2n1 [Compound 54, N-({6-[(benzylamino)methyl]imidazo[1,2-a]pyridin-2-yl}methyl)-4-oxo-4H-pyrido[1,2-a]pyrimidine-2-carboxamide] | 16 nM |

Same assay, conditions: read-out: METTL3_14 RFMS IC50

| SMILES | IC50 |
| --- | --- |
| C#Cc1cc(C(=O)NCc2cn3cc(C)ccc3n2)c2cn[nH]c2c1 [Compound 14, 6-ethynyl-N-({6-methylimidazo[1,2-a]pyridin-2-yl}methyl)-1H-indazole-4-carboxamide] | 5900 nM |
